{"source": "patent US20070274916A1", "about": "“Method for Identifying Compounds that Affect Expression of Tryptophan Hydroxylase Isoform 2” (priority 2003, published 2007)", "system": "TPH1 mRNA", "experiment": "TPH1 mRNA levels in murine raphe slice preparation by real-time RT-PCR", "assay_type": "in vivo, mouse", "excerpt": "Female mice (13 to 16 wks of age) were ovariectomized (C57BL/6s from Charles River; ER Knockout animals from Taconic). Animals were fed a soy-free rodent chow and allowed a minimum of one week to recuperate from surgery and shipping. […] Approximately six hours following the fourth dose, mice were deeply anesthetized with ketamine/xylazine and brains were removed from the skull, placed ventral side up in a mouse brain block on ice, and ice-cold razor blades were inserted into the block at 1 mm intervals. The caudal extent of the hypothalamus was used as an anatomical marker for the placement of the first razor blade, and 4 blades were placed in sequential slots, caudally. The four sections were examined and the two that encompassed the greatest extent of the dorsal raphe were placed in a tube containing RNALATER (Ambion, Austin, Tex.) and placed at 4° C. overnight. Brain slices were removed from RNALATER after 24 hours and stored at −80° C. in fresh tubes.\nIsolation of total RNA from mouse raphe slices for real-time PCR analysis using the TAQMAN ABI PRISMS 7700 Detection System, Applied Biosystems, Foster City, Calif. was as follows. Samples were stored in RNALATER at 4° C. overnight followed by removal of RNALATER and storage at −80° C. until isolation of the total RNA (2 slices weigh 25 to 50 mg). Slices were removed from −80° C. and placed in 1.0 mL TRIZOL Reagent in FASTPREP processing tubes. Slices were homogenized with one pass at setting 6 for 30 seconds in FASTPREP 120 homogenizer using LYSING MATRIX D tubes with bead matrix followed by 20 seconds at setting 6 after all samples had been processed. Samples were set at room temperature for 5 minutes to allow for complete dissociation of nucleoprotein complexes followed by centrifugation of the samples at 12,000×g for 5 minutes at 4° C. Homogenates were transferred to 1.5 mL; microcentrifuge tubes and 100 μL BCP (Bromo-3-chloropropane) was added. Samples were vortexed for 15 seconds and set at room temperature for 2 to 3 minutes. Samples were centrifuged at 12,000×g for 15 minutes at 4° C. The aqueous layer was removed and placed in a new RNAse-free sterile 1.5 mL microcentrifuge tube. Five μL of 5 mg/μL glycogen was added to each sample and the samples were vortexed. Five hundred μL of isopropanol was added to each sample. The samples were vortexed for 15 seconds, set at room temperature 10 minutes, followed by centrifugation at 12,000×g for 15 minutes at 4° C. Supernatants were decanted and pellets washed with 500 μL ice cold 75% ethanol. Samples were centrifuged at 12,000×g for 15 minutes at 4° C., ethanol decanted, and pellets air dried for 10 minutes. Pellets were resuspended in 30 μL prewarmed RNASECURE (60° C.), and heated at 60° C. for 10 min. Samples were stored at −80° C. until DNAse treatment and cDNA synthesis.\nDNase treatment and cDNA preparation with wt mouse raphe slice total RNA for TAQMAN analysis. DNase treatment using DNA-free kit (Ambion). Five μg of the total RNA sample was aliquotted to each well of a 96 well plate. An 1× DNase I solution was added to each sample (DNase I buffer, DNase I, H2O). Reactions were mixed and incubated at 37° C. for 30 minutes. Reactions were inactivated by addition of DNase inactivation reagent beads, mixed well at room temperature for 3 minutes and centrifuged at 2,500 RPM for 1 minutes at 4° C. (25 μL reactions were run and inactivated with 1/10 volume of inactivation reagent).\nReverse Transcription. A 10 μL of the DNase I-treated total RNA was added to 40 μL of 1× reverse transcription reaction mix (DEPC treated H2O, RT buffer, MgCl2, dNTP mix, random hexamers, RNase inhibitor, and MULTISCRIBE RT) and incubated at 25° C. for 10 minutes, 48° C. for 30 minutes, and 95° C. for 5 minutes. Reverse transcription was halted by the addition of EDTA. Samples were transferred to a storage plate and stored at −20° C. […]", "data": [{"smiles": "C[C@]12CC[C@@H]3c4ccc(O)cc4CC[C@H]3[C@@H]1CC[C@@H]2O", "note": "[17β-estradiol]", "values": [{"measurement": "TPH1 mRNA induction in raphe slice", "setting": "0.2 mpk s.c. once daily for four days, ovariectomized mice, FIG. 6", "value": 1.8, "unit": "fold"}, {"measurement": "effect on TPH1 mRNA in the DRN", "setting": "male and female mice, data not shown", "value": "induces"}]}, {"smiles": "C[C@@H]1C[C@H]2[C@@H]3CCC4=CC(=O)C=C[C@]4(C)[C@@]3(F)[C@@H](O)C[C@]2(C)[C@@]1(O)C(=O)CO", "note": "[dexamethasone]", "values": [{"measurement": "effect on TPH1 mRNA levels", "setting": "3 mpk s.c., ovariectomized mice, FIG. 6", "value": "no effect"}]}, {"smiles": "CC#C[C@]1(O)CC[C@H]2[C@@H]3CCC4=CC(=O)CCC4=C3[C@@H](c3ccc(N(C)C)cc3)C[C@@]21C", "note": "[mifepristone]", "values": [{"measurement": "change of TPH1 mRNA levels in response to treatment", "setting": "murine raphe slice preparations, dose not stated, FIG. 6", "value": "no detectable change"}]}]}
